The subject of this assay is S. aureus 6. The assay is described as follows: In vitro antimicrobial activity (two-fold agar-plate dilution method). It is filed as cell-based. The settings on record: Staphylococcus aureus, heart infusion agar (HI-agar), 10^6 viable cells per ml, 37° C., 20 hours, read-out: MIC (minimal inhibitory concentration). As to the method: In vitro Antimicrobial Activity was determined by the two-fold agar-plate dilution method as described below.
One loopful of an overnight culture of a test strain in Trypticase-soy broth (10^6 viable cells per ml) was streaked on heart infusion agar (HI-agar) containing graded concentrations of the test compound, and the minimal inhibitory concentration (MIC) was expressed in terms of μg/ml after incubation at 37° C. for 20 hours.

`C[C@@H](O)[C@H]1C(=O)N2C(C(=O)O)=C(C3CN=CNC3)C[C@H]12` (stereo partly drawn) [Example 1, [5R,6S)-6-[(R)-1-hydroxyethyl]-3-[3,4,5,6-tetrahydropyrimidin-5-yl]-7-oxo-1-azabicyclo[3.2.0]hept-2-ene-2-carboxylic acid]: the MIC is no more than 0.025 µg/mL.
